In patent publication US12440528B2, “Methods of treating ovarian cancer with hemp extract” (Ecofibre USA Inc., priority 2021, dated 2025):
Converted amounts (≈) assume the structure as drawn. Read-outs that look alike come from different tables or passages of the source.

What was measured:
[1] = test system: patient derived organoids; assay type: cell-based, human; details: for % Cell Death: organoid cell death; for response of the patient's organoid: organoid of the chemoresistant endometrial cancer patient
Description: A few of the above drug products, as well as additional drugs were tried for response to patient derived organoids.

[2] = test system: chemoresistant ovarian cancer organoid
Description: To culture patient-derived organoids, 2-3×10^3 cells were plated in a pre-warmed (37° C.) 96-well plate in 10 mL of Matrigel (5%FBS AD+++ medium) per well. Individual patient cell organoid was cultured separately in different plates. Individual patient cells were handled separately to reduce the chance of cross-contamination. After mixing cells with Matrigel, 10 mL droplets were placed in wells and put in a 37° C. incubator with 5% CO2 for 30 minutes. Upon solidification of the Matrigel droplet with cells inside, the plate was placed inside a sterile hood and immersed the Matrigel droplet in 200 μL of organoid growth media. Cells were allowed to grow into mature organoids for 14 days. […] All treatments were done in triplicate, including vehicle-only controls (Dimethyl sulfoxide in culture medium at the highest concentration used for drug treatments).
To assess the cell viability in organoids after treatments, CellTiter-Glo® Luminescent Assay (Promega #G7572) was used. In brief, on day 14 of organoid culture, the matrigel droplet in each well with organoid inside was immersed in 100 μL of fresh growth media and 100 μL of CellTiter-Glo® reagent following the manufacturer's guideline. Blank wells containing only media and CellTiter Glo® reagent (no cells) were also included in each plate. Then the plates were put on a shaker @ 110 rpm at room temperature for 5 minutes to induce cell lysis, followed by 25 minutes at room temperature to stabilize the luminescent signal. Each step after adding the CellTiter Glo® reagent was performed in the dark. Luminescence was measured on a FLUOstar OPTIMA plate reader (BMG Lab technologies, Offenburg, Germany). Analysis was performed by normalizing treatment values to the vehicle control and plotting them as a percentage of the vehicle control. Drug IC50 values were determined by inhibitor vs normalized response-variable slope using least squares regression in Graphpad Prism 9.

[3] = test system: chemosensitive ovarian cancer cells, derived from ascites cells; details: for viability: human, 14 days
[4] = test system: patient derived endometrial cancer cells; assay type: in vivo, mice; details: paclitaxel alone 10 mg/kg (30.007 mg/m^2), 21 days
Description: Human patient cells from endometrial cancer were injected subcutaneously into female NOD/SCID gamma mice after resuspending in 100 μL solution. […] All treatment group mice were kept alive for up to 10 weeks after drug injection or until the tumor volume grows bigger than 2500 mm^3.

[5] = chronic use, humans; cited from earlier work
P-glycoprotein = P-glycoprotein (Homo sapiens, UniProt P08183); details: in vitro; cited from earlier work
[6] = cited from earlier work
[7] = test system: patient derived organoids (PD3D Cell Culture); experiment: Calculated IC50 in PD3D cell culture of the patient derived organoids; assay type: cell-based, human
cancer organoid = experiment: Effect of pH of the Cannabis extract on organoid viability; assay type: cell-based, human; details: pH 8
Description: A further interesting observation was determined by the impacts of pH on the efficacy of the Cannabis extract on organoid data. […] In each case, the control vehicle, buffered to the same pH was ineffective in killing the cells at all, and thus was not depicted. […] However, pH of 12, and certainly of 14 are highly corrosive, alkaline concentrations and are not suitable for therapeutic use.
Accordingly, when providing the Cannabis extract for therapeutic administration, […] yields an unexpected increase in efficacy.

[8] = test system: patient derived chemosensitive and chemoresistant ovarian cancer organoids; experiment: Four Cannabis extracts on newly obtained ovarian cancer organoids, viability; assay type: cell-based, human
Description: Applicant then tested several different Cannabis extracts at varying concentrations on newly obtained patient derived chemosensitive and chemoresistant ovarian cancer organoids. […] Here, the BSHE continued to work at virtually the same level as prior tests, even though these organoids were generated from different patients than all prior tests. […] However, what remains constant is that at or about 10 μg/mL, virtually all patient derived organoid samples begin to or reach zero viability.

[9] = test system: patient derived endometrial cancer organoids; experiment: Carboplatin alone or with Cannabis extract, endometrial cancer organoids; assay type: cell-based, human
Description: To determine if this premise is conserved over different chemotherapeutic agents, Applicant repeated the tests replacing paclitaxel with carboplatin toward a related gynecological cancer cell, endometrial cancer cells. The surprising findings with paclitaxel were further confirmed by testing the impacts of carboplatin alone or carboplatin with a Cannabis extract.
Finally, with a dose of 250 μm/mL carboplatin, a 2.5× in the dose from the […] test, all of the combined therapeutics with carboplatin and Cannabis extract are below 10% viability, while the carboplatin alone remains at above 30%.

Sequence of P-glycoprotein (P08183 whole entry): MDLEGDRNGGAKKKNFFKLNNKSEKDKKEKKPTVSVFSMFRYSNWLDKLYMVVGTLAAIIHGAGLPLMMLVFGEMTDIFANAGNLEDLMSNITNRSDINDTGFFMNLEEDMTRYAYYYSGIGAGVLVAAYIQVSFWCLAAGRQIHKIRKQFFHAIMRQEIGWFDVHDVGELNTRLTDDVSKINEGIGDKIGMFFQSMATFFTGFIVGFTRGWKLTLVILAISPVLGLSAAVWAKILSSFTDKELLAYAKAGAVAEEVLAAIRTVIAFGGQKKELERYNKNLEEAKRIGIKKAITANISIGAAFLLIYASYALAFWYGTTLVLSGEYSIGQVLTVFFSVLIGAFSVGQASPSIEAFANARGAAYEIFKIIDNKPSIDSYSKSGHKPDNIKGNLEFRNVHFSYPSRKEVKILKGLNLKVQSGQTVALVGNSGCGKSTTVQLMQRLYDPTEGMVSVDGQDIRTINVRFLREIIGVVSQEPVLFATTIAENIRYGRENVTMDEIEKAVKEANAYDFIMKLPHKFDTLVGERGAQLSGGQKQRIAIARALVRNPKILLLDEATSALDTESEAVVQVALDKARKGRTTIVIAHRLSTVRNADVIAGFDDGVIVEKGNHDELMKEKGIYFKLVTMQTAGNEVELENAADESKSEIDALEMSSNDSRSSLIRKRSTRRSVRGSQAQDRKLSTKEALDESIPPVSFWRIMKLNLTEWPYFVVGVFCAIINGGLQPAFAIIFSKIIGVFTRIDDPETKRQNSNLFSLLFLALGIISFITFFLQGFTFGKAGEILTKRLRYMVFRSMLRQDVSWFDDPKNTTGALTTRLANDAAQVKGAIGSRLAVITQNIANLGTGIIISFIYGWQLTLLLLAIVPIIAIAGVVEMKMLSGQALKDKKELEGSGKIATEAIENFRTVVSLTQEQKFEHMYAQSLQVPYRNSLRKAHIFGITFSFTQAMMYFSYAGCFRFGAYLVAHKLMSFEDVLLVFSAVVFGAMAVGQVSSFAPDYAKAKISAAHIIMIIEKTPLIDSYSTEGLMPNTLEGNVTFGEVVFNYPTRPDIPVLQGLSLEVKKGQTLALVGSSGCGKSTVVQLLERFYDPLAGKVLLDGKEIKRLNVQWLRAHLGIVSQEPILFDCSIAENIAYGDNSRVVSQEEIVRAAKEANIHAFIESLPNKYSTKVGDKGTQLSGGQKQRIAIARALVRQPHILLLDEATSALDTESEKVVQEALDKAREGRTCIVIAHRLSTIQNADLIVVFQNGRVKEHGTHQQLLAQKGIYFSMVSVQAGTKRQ

COc1cc2c(cc1O)CCN[C@]21CS[C@@H]2c3c(OC(C)=O)c(C)c4c(c3[C@H](COC1=O)N1[C@@H]2[C@H]2c3c(cc(C)c(OC)c3O)C[C@@H]([C@@H]1O)N2C)OCO4 [Trabectedine]
% Cell Death [1]: 32%

COc1cccc2c1C(=O)c1c(O)c3c(c(O)c1C2=O)C[C@@](O)(C(=O)CO)C[C@@H]3O[C@H]1C[C@H](N)[C@@H](O)[C@H](C)O1 [epirubicin]
% Cell Death [1]: No Response

COc1cccc2c1C(=O)c1c(O)c3c(c(O)c1C2=O)C[C@@](O)(C(=O)CO)C[C@@H]3O[C@H]1C[C@H](N)[C@H](O)[C@H](C)O1 [Doxorubicin]
% Cell Death [1]: 39%

CC(=O)O[C@H]1C(=O)[C@@]2(C)[C@H]([C@H](OC(=O)c3ccccc3)[C@]3(O)C[C@H](OC(=O)[C@H](O)[C@@H](NC(=O)c4ccccc4)c4ccccc4)C(C)=C1C3(C)C)[C@]1(OC(C)=O)CO[C@@H]1C[C@@H]2O [Paclitaxel]
viability ([2]; paclitaxel alone 4 nm/mL): 45% | change in viability on adding 5× more paclitaxel ([2]; paclitaxel alone 4 to 20 nm/mL): about 3% | viability ([2]; paclitaxel alone, 5× more (20 nm/mL)): 42% | viability ([3]; 4 nm/mL): about 89% | viability ([3]; 20 nm/mL): about 57% | change in viability on increasing the dose by 5× ([3]; paclitaxel alone 4 to 20 nm/mL): 32% | overall kill rate ([3]; paclitaxel alone, highest dose (20 nm/mL)): less than 50% | effect on tumor volume / tumor growth [4]: ineffective in reducing tumor growth | effect on tumor volume / tumor growth ([4]; listed as paclitaxel): in essence ineffective | % Cell Death [1]: 39%

CCC1=C[C@@H]2CN(C1)Cc1c([nH]c3ccccc13)[C@@](C(=O)OC)(c1cc3c(cc1OC)N(C)[C@H]1[C@@](O)(C(=O)OC)[C@H](OC(C)=O)[C@]4(CC)C=CCN5CC[C@]31[C@@H]54)C2 [Vinorelbine]
% Cell Death [1]: 45%

CO[C@@]12[C@H](COC(N)=O)C3=C(C(=O)C(C)=C(N)C3=O)N1C[C@@H]1N[C@@H]12 [mitomycin]
% Cell Death [1]: No Response

N.N.[Cl][Pt][Cl] [Cisplatin]
% Cell Death [1]: 36%

C=C(C)[C@@H]1CCC(C)=C[C@H]1c1c(O)cc(CCCCC)cc1O [CBD, cannabidiol]
doses established as well tolerated [5]: up to 1,500 mg/day | response of the patient's organoid [1]: significant response | inhibition of P-glycoprotein-mediated drug transport (P-glycoprotein): significantly inhibits | peak plasma concentrations of CBD ([6]; coadministration of rifampicin (a CYP3A4 inducer)): significantly reduced | peak plasma drug concentrations ([6]; coadministration of the CYP3A4 inhibitor ketoconazole): nearly doubled | time of maximum plasma concentration ([6]; oral-mucosal or sublingual delivery): 1.6 h | time of maximum plasma concentration, delayed ([6]; orally delivered, some individuals): up to 6 hours | time of maximum plasma concentration ([6]; orally delivered): 2.5 to 5 h

CC[C@]1(O)C[C@H]2CN(CCc3c([nH]c4ccccc34)[C@@](C(=O)OC)(c3cc4c(cc3OC)N(C=O)[C@H]3[C@@](O)(C(=O)OC)[C@H](OC(C)=O)[C@]5(CC)C=CCN6CC[C@]43[C@@H]65)C2)C1 [vincristine]
% Cell Death [1]: No Response

Nc1cccc2c1C(=O)N(C1CCC(=O)NC1=O)C2=O (centres unmarked) [Pomalidomide]
Calculated IC50 PD3D Cell Culture [7]: Not Reached

Bevacizumab
Calculated IC50 PD3D Cell Culture [7]: Not Reached

O=C1[O][Pt]2([NH][C@@H]3CCCC[C@H]3[NH]2)[O]C1=O [oxaliplatin]
% Cell Death [1]: No Response

O=C(c1ccc(F)c(F)c1Nc1ccc(I)cc1F)N1CC(O)([C@@H]2CCCCN2)C1 [Cobimetinib]
Calculated IC50 PD3D Cell Culture [7]: Not Reached

CCN(CC)CCNC(=O)c1c(C)[nH]c(/C=C2\C(=O)Nc3ccc(F)cc32)c1C [Sunitnib]
Calculated IC50 PD3D Cell Culture [7]: Not Reached

N[C@@H](CCC(=O)N[C@@H](CS)C(=O)NCC(=O)O)C(=O)O [Glutathione]
Calculated IC50 PD3D Cell Culture [7]: Not Reached

O=C(O)C(Cl)Cl [Dichloracetate]
Calculated IC50 PD3D Cell Culture [7]: Not Reached

O=C(c1cc(Cc2n[nH]c(=O)c3ccccc23)ccc1F)N1CCN(C(=O)C2CC2)CC1 [Olaparib]
Calculated IC50 PD3D Cell Culture [7]: Not Reached

O=P1(NCCCl)OCCCN1CCCl (centres unmarked) [ifosfamide]
% Cell Death [1]: No Response

Bleomycin
% Cell Death [1]: 53%

C=C(C)[C@@H]1CCC(C)=C[C@H]1c1c(O)cc(CCCCC)cc1O [CBD isolate, cannabidiol]
killing of the organoids compared with native pH (cancer organoid): virtually no change | viability at 15 µg/mL ([8]; Homo sapiens, 15 μg/mL, all samples): 0% | viability at 20 µg/mL ([8]; Homo sapiens, 20 μg/mL, all samples): 0% | IC50 ([9]; Homo sapiens, extract alone): 3 µg/mL (≈ 9.54 µM) | viability ([9]; carboplatin 50 μm/mL with IC50 amount of extract): ~37% | improvement in viability on adding the extract ([9]; carboplatin 100 μm/mL plus IC50 amount of extract): 32%

CN(C)C(=N)N=C(N)N [Metformin]
Calculated IC50 PD3D Cell Culture [7]: Not Reached

CCN(CCO)CCCC(C)Nc1ccnc2cc(Cl)ccc12 (centres unmarked) [Hydroxychloroquine]
Calculated IC50 PD3D Cell Culture [7]: Not Reached

CN(Cc1cnc2nc(N)nc(N)c2n1)c1ccc(C(=O)N[C@@H](CCC(=O)O)C(=O)O)cc1 [methotrexate]
% Cell Death [1]: No Response

O=C1c2c(O)ccc(O)c2C(=O)c2c(NCCNCCO)ccc(NCCNCCO)c21 [Mitoxantrone]
% Cell Death [1]: 50%

CC[C@]1(O)C[C@@H]2CN(CCc3c([nH]c4ccccc34)[C@@](C(=O)OC)(c3cc4c(cc3OC)N(C)[C@H]3[C@@](O)(C(=O)OC)[C@H](OC(C)=O)[C@]5(CC)C=CCN6CC[C@]43[C@@H]65)C2)C1 [Vinblastine]
% Cell Death [1]: 38%

CC(=O)O[C@@]12CO[C@@H]1C[C@H](O)[C@@]1(C)C(=O)[C@H](O)C3=C(C)[C@@H](OC(=O)[C@H](O)[C@@H](NC(=O)OC(C)(C)C)c4ccccc4)C[C@@](O)([C@@H](OC(=O)c4ccccc4)[C@H]21)C3(C)C [Docetaxel]
% Cell Death [1]: No Response

C[C@@H](Oc1cc(-c2cnn(C3CCNCC3)c2)cnc1N)c1c(Cl)ccc(F)c1Cl [Crizotinib]
Calculated IC50 PD3D Cell Culture [7]: Not Reached

COc1cc([C@@H]2c3cc4c(cc3[C@@H](O[C@@H]3O[C@@H]5CO[C@@H](C)O[C@H]5[C@H](O)[C@H]3O)[C@H]3COC(=O)[C@H]23)OCO4)cc(OC)c1O [Etoposide]
% Cell Death [1]: 33%

CO[C@H]1C(=O)[C@]2(C)[C@@H](OC)C[C@H]3OC[C@@]3(OC(C)=O)[C@H]2[C@H](OC(=O)c2ccccc2)[C@]2(O)C[C@H](OC(=O)[C@H](O)[C@@H](NC(=O)OC(C)(C)C)c3ccccc3)C(C)=C1C2(C)C [Cabazitaxel]
% Cell Death [1]: 37%

C=C(C)[C@@H]1CCC(C)=C[C@H]1c1c(O)cc(CCCCC)c(C(=O)O)c1O [CBDA, cannabidiolic acid]
viability ([8]; 50 μg/mL): nearing zero viability

N.N.O=C([O-])C1(C(=O)[O-])CCC1.[Pt+2] [Carboplatin]
% Cell Death [1]: 30% | viability ([9]; carboplatin alone 50 μg/mL): about 50% | viability ([9]; carboplatin alone 100 μg/mL): about 50% | total drop in viability on increasing the dose by 5× ([9]; carboplatin alone 50 to 250 μm/mL): about 17%

Nc1ccn([C@@H]2O[C@H](CO)[C@@H](O)C2(F)F)c(=O)n1 [Gemcitabine]
% Cell Death [1]: 56%

COc1cc2nccc(Oc3ccc(NC(=O)NC4CC4)c(Cl)c3)c2cc1C(N)=O [Lenvatinib]
Calculated IC50 PD3D Cell Culture [7]: Not Reached

gemcitabine/capecitabine [GemCap]
response of the patient's organoid [1]: partial response

CCc1c2c(nc3ccc(OC(=O)N4CCC(N5CCCCC5)CC4)cc13)-c1cc3c(c(=O)n1C2)COC(=O)[C@]3(O)CC [Irinotecan]
% Cell Death [1]: 51%

Cn1nnc2c(C(N)=O)ncn2c1=O [Temozolomide]
% Cell Death [1]: 40%

CN(C)/N=N/c1[nH]cnc1C(N)=O [Dacarbazine]
% Cell Death [1]: 32%

Nc1nc2[nH]cc(CCc3ccc(C(=O)N[C@@H](CCC(=O)O)C(=O)O)cc3)c2c(=O)[nH]1 [Pemetrexed]
% Cell Death [1]: No Response | Calculated IC50 PD3D Cell Culture [7]: Not Reached

C=C1C[C@@H]2CC[C@@]34C[C@H]5O[C@H]6[C@@H](O3)[C@H]3O[C@H](CC[C@@H]3O[C@H]6[C@H]5O4)CC(=O)C[C@@H]3[C@@H](OC)[C@@H](C[C@H](O)CN)O[C@H]3C[C@H]3O[C@@H](CC[C@@H]1O2)C[C@@H](C)C3=C [eribulin]
% Cell Death [1]: No Response

5-Fluorouaracil/Capecitabine
% Cell Death [1]: 61%

N[C@@H](Cc1ccc(N(CCCl)CCCl)cc1)C(=O)O [Melphalan]
% Cell Death [1]: 40%

O=P1(N(CCCl)CCCl)NCCCO1 (centres unmarked) [Cyclosphosphamide]
% Cell Death [1]: 32%

O=C1O[C@H]([C@@H](O)CO)C(O)=C1O [Ascorbic Acid]
Calculated IC50 PD3D Cell Culture [7]: Not Reached
